Results taken from article PMC3226453, “Targeting the Wolbachia Cell Division Protein FtsZ as a New Approach for Antifilarial Therapy” (PLoS Neglected Tropical Diseases, 2011).

Columns and labels:
Ec-FtsZ [1] = molecular target: T1, Ec-FtsZ (Escherichia coli, UniProt P0A9A6); experiment: enzyme-coupled GTPase assay, dose response; format: biochemical
T1 construct: N-terminal His tag, from strain MG1655
T1 sequence (P0A9A6 1-383): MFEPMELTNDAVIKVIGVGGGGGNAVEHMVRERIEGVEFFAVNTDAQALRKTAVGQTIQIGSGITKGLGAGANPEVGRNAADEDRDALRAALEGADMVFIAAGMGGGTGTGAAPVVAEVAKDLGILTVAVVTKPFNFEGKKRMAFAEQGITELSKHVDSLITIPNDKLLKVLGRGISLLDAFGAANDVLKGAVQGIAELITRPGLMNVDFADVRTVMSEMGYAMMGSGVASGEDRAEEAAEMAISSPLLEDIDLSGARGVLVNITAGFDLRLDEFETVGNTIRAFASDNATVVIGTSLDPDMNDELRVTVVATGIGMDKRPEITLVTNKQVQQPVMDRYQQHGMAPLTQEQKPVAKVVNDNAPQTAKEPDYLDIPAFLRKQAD

Ec-FtsZ [2] = molecular target: T1, Ec-FtsZ; experiment: enzyme-coupled GTPase assay, specific activity; format: biochemical
(UniProt Q5GS34) = molecular target: T2, (UniProt Q5GS34); experiment: enzyme-coupled (PK/LDH, NADH) GTPase assay; format: biochemical, Wolbachia endosymbiont of Brugia malayi
T2 construct: gene ftsZ; full-length, N-terminal His6 tag
T2 sequence (Q5GS34 1-396 limits assumed): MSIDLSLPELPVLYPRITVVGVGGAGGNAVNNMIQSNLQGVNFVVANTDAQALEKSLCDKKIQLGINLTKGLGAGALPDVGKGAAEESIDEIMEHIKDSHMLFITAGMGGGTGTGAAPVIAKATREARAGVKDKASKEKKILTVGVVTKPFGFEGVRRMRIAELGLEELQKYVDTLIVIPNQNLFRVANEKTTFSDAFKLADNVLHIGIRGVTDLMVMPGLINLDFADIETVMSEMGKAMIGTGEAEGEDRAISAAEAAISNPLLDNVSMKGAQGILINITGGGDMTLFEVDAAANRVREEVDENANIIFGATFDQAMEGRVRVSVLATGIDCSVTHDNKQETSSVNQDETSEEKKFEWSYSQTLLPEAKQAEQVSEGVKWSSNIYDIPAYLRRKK

Ec-FtsZ [3] = molecular target: T1, Ec-FtsZ; experiment: enzyme-coupled (PK/LDH, NADH) GTPase assay; format: biochemical

COc1ccc(-c2ccc(C(C(=O)NC3CCCCC3)N(Cc3ccccn3)C(=O)c3ccccc3)cc2)cc1 (centres unmarked) [AV-C6]
enzyme-coupled GTPase assay, dose response (Ec-FtsZ [1]): both compounds inhibited Ec-FtsZ activity although each was slightly less potent

Nc1nc2c(ncn2[C@@H]2O[C@H](COP(=O)(O)OP(=O)(O)OP(=O)(O)O)[C@@H](O)[C@H]2O)c(=O)[nH]1 [GTP]
enzyme-coupled GTPase assay, specific activity (Ec-FtsZ [2]): 0.22 ± 0.015 µmol/min/mg

CCCCNC(=O)C(c1ccc2cc(O)ccc2c1)N(Cc1ccc(Cl)cc1)C(=O)CCC (centres unmarked) [N938]
enzyme-coupled GTPase assay, dose response (Ec-FtsZ [1]): both compounds inhibited Ec-FtsZ activity although each was slightly less potent

COc1ccc2cc3[n+](cc2c1OC)CCc1cc2c(cc1-3)OCO2 [berberine]
IC50 ((UniProt Q5GS34)): 320 µM | IC50 (Ec-FtsZ [3]): 240 µM
